Data reported in patent publication US6287813A, “Antibiotic-based gene regulation system” (Cistronics Cell Technology GmbH, priority 1999, dated 2001).

Key:
[1] = target: T1, Pip/PPTR (Streptomyces coelicolor, UniProt Q9ADN3); test: Gel retardation assay of Pip/PPTR interaction; assay type: binding; conditions: Pip 0.2 pmol titrated with 50 pmol to 0.01 pmol antibiotic
T1 construct: gel retardation with ptr promoter DNA (PPTR) of S. pristinaespiralis
T1 sequence (Q9ADN3 1-252): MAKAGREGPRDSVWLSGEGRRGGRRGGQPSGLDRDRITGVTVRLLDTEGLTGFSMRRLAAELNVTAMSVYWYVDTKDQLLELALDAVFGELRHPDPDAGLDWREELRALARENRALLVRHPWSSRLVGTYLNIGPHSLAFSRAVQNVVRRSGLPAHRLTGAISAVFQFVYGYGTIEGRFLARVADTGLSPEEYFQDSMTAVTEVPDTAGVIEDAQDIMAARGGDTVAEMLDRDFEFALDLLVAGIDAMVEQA
Text: FIG. 1: Gel retardation assay showing Pip/PPTR interaction. PPTR of S. pristinaespiralis contains 3 dyad symmetrical binding sites (lane A; PPTR in the absence of Pip) all of which are saturated at relatively large amounts of purified Pip (0.4 pmol; […]) resulting in a single shifted band. Smaller amounts of Pip (0.02 pmol) presented an intermediate situation in which all possible permutations of site occupancy are represented in three distinct retarded bands (lane C). Pip (0.2 pmol lanes D-M) was titrated with a range of PI from 50 pmol to 0.01 pmol (lanes D-H; D: 50 pmol; E: 10 pmol; F: 1 pmol; G: 0.1 pmol; H: 0.01 pmol). […]
Chinese hamster ovary cells (CHO-K1, ATCC: CCL 61), Baby hamster kidney cells (BHK-21, ATCC: CRL-8544), and HeLa cells (ATCC: CRL-7923) as well as stable cell lines CHO-PIT1, CHO-PIT2, CHO-TWIN195, CHO-TWIN1108 and CHO-PIT1-SEAP were cultured as described before (Fussenegger et al., 1998, Nat. Biotechnol. 16,468-472) in the presence of appropriate antibiotics: G418 400 μg/ml; zeocin 100 μg/ml. […] Transient transfected cells were routinely analyzed after 48 h for GFP or SEAP expression using fluorescence microscopy and p-nitrophenolphosphate-based light absorbance timecourse, respectively, as described before (Fussenegger et al., 1998, Nat. Biotechnol. 16, 468-472; Berger et al., 1988, Gene 66, 1-10 b). […]

[2] = test system: CHO cells; test: CHO cell morphology, growth and toxicity; assay type: cell-based, Chinese hamster
Protocol: However, pristinamycin has no influence on expression levels of PSV40 or PCMV -driven SEAP expression constructs (data not shown). […] Similar PI-dependent gene expression using the PIT/PPIR system has also been observed in BHK-21 and HeLa cells (not shown). […] This is the same order of magnitude as tissue concentrations reached in antibiotic therapy. Only much higher PI concentrations (above 50 μg/ml) were toxic for CHO cells.

[3] = target: T2, PIT/PPIR system (Streptomyces coelicolor, UniProt Q9ADN3); test: Positive feedback vector pMF170 (PPIR-GFP-IRES-PIT-pA), GFP fluorescence microscopy; assay type: cell-based; conditions: pMF170 in CHO-K1, BHK-21 or HeLa cells
T2 construct: pMF156/pTWIN in CHO cells, PPIR-SEAP or GFP reporter
T2 sequence (Q9ADN3 1-252): T1 sequence (Q9ADN3 1-252)
Text: These positive feedback regulation vectors that were constructed contain both the green fluorescent protein GFP and PIT in a dicistronic, PPIR -driven configuration.
For construction of the autoregulatory system, PIT was excised from pMF156 by EcoRI/HindIII and cloned into the polylinker of the eukaryotic expression vector pSBC-2 (EcoRI/HindIII). As a pSBC-2 derivative, the resulting plasmid pMF169 is compatible to the pSBC-1 derivative pMF164 (PPIR -GFP) and allows fusion of both expression units via their SspI/NotI restriction sites, thereby generating pMF170. pMF170 contains a dicistronic PPIR -regulated expression unit encoding GFP in the first and PIT in the second cistron. Cap-independent translation initiation of the second cistron is enabled by a picornaviral internal ribosomal entry site (IRES) encoded upstream of PIT.

pristinamycin I [PI]
Release of Pip from PPTR [1]: completely released | Effects on CHO cell morphology and growth ([2]; PI 2 μg/ml): No deleterious effects | PI concentration toxic for CHO cells ([2]; hamster, cho cells): above 50 μg/ml | GFP-expression in the presence of PI [3]: completely repressed
